# Measurements from the METLIN SMRT retention time set (Domingo-Almenara et al. 2019).
# Test: gradient 5% acetonitrile 3 min, to 50% in 2 min, to 85% in 15 min, held 3 min, 100 µL/min
# Conditions: column: Zorbax Extend-C18 2.1 x 50 mm; eluents: water / acetonitrile, 0.1% formic acid
# Summary of the method: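 Mixtures of ~100 pure standards were chromatographed on a Zorbax Extend-C18 column (2.1 × 50 mm, 1.8 μm) at 100 μL/min using water and acetonitrile, each with 0.1% formic acid. Detection used a quadrupole time-of-flight mass spectrometer in positive and negative ionization mode, and data collection spanned 3 months. Retention time was obtained from adduct peaks picked computationally and each checked manually.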
row,SMILES,RP-LC retention time [s]
1,O=C1NC(=O)c2cc(Nc3ccccc3)c(Nc3ccccc3)cc21,1040
2,Cc1c(Cl)cccc1N1C(=O)CN(S(C)(=O)=O)CC1(C)C(=O)NC1CCCCCCC1 (configuration not stated),1010
3,CCn1cc(-c2nc(C(=O)NCc3ccc(F)c(Cl)c3)cs2)c2cccnc21,1050
4,O=C(NC1CCCC1)c1cccnc1N1CCSCC1,735
5,Cc1ccc2nc(NC(=O)C3CCN(C(=O)C4Sc5ccccc5NC4=O)CC3)sc2c1 (configuration not stated),838
6,Cc1ccc(NC(=O)C(=O)NCC2CCN(S(C)(=O)=O)CC2)cc1N1CCCC1=O,627
7,COC(=O)c1cnn2c(C)c(Cc3ccc(F)cc3)c(C)nc12,845
8,c1ccc(-c2nc(C3CC3)no2)c(OC2CNC2)c1,614
9,COC(=O)c1c(NCCc2ccccc2)c2cccc(Cl)c2[nH]c1=O,825
10,Cc1nc(CC(=O)Nc2ccc(F)cc2F)sc1C(=O)NC1CC1,696
11,Cc1ccc(-c2nc(-c3ccc4c(c3)nnn4CCN3CCOCC3)no2)cc1C,760
12,CCOc1ccc(C(=O)N2CCC3(CC2)C(=O)N(CC)c2ccccc23)cc1OCC,939
13,COc1ccc(CCNC(=O)C2=C3CCCN3c3ccc(F)cc3S2(=O)=O)cc1OC,790
14,COc1ccccc1N1CCN(Cc2nc(-c3ccc(N4CCCCC4)nc3)no2)CC1,757
15,N#Cc1ccc(C(=O)N2CCCC2c2nc(-c3ccc(F)cc3F)no2)cc1 (configuration not stated),921
16,CCOc1ccc(NC(=O)C2CCN(c3cc(N4CCSCC4)ncn3)CC2)cc1,693
17,COc1ccccc1NC(=O)N1CCC2(CC1)N=C(c1ccc(Cl)cc1)C(=O)N2,884
18,Cc1cc(C)cc(C(=O)NC2CCN(c3cc(-c4cccs4)[nH]n3)C2)c1 (configuration not stated),742
19,CN1CCN(C(=O)c2csc(N3CCN(c4ccccc4F)CC3)n2)CC1,649
20,CC(C)CCNC(=O)c1cn2cc(Cl)ccc2n1,825
21,COc1nc2ccccc2nc1N1CCCC(C(=O)N2CCC(C)CC2)C1 (configuration not stated),1110
22,CCn1cc(C)c(C(=O)O)c1CC(=O)NC1CCCCCC1,814
23,O=C(COc1ccccc1)N1[C@H]2CC[C@@H]1c1cnc(-c3ccccc3)nc1C2,952

row,SMILES,RP-LC retention time [s]
1,CCCCC(=O)Nc1ccc2nc(N3CCN(C)CC3)cc(C(=O)O)c2c1,571
2,Cc1nnc2c(=O)n(CC(=O)N3CCN(C4CCCCC4)CC3)c3cccnc3n12,587
3,COc1cccc(-c2ccc3nc(N4CCC(C(=O)NC5CC5)CC4)sc3n2)c1,861
4,CCCN(CC1CCOC1)C(=O)Nc1ccc(C)c(C)c1 (configuration not stated),869
5,CCC(=O)Nc1c(C)noc1/C=C/c1ccc(S(=O)(=O)N2CCN(c3ccccn3)CC2)s1,677
6,Cc1ccc(S(=O)(=O)NCc2c(-c3ccccc3)nc3sc(C)nn23)c(C)c1,922
7,CNC(=O)c1cccc2c1CCN2C(=O)Nc1ccc(C)cc1,747
8,CC1CCC(NS(=O)(=O)c2ccc3c(c2)c(=O)n(CC(=O)N2CCCC2)c(=O)n3C)CC1 (configuration not stated),834
9,Cc1[nH]nc(-c2c(C)sc(C)c2S(=O)(=O)Nc2cccc(Br)c2)c1C,1130
10,O=C(NCCOc1ccc2nnc(-c3ccccc3Cl)n2n1)c1cccs1,664
11,COc1ccc(C(=O)Oc2cc(C)nn2-c2nc3ccccc3[nH]2)cc1,643
12,CCOc1ccc(NC(=O)CN2C(=O)c3ccccc3Sc3ncccc32)cc1,843
13,CN1CCCn2cc(S(=O)(=O)Nc3ccc(F)cc3)cc2C1=O,670
14,O=C(c1ccc(OCC2CCN(C(=O)c3cccs3)CC2)cc1)N1CCOCC1,747
15,Cc1ccc(-c2ccc(N3CCCC(C(=O)NCc4ccc(Br)cc4)C3)nn2)cc1 (configuration not stated),806
16,COc1ccc(Cl)cc1N1CC(c2nc(-c3ccc4c(c3)OCO4)no2)CC1=O (configuration not stated),941
17,COc1cc(O)ccc1-c1nc2ccc(Br)cn2c1Nc1ccccc1C,736
18,COC(=O)c1ccccc1NC1=NS(=O)(=O)c2ccccc21,934
19,Cc1cccc(S(=O)(=O)N2CC3CN(C(=O)C(C)c4ccccc4)CC(C2)O3)c1 (configuration not stated),905
20,Cc1ccc(NC(=O)NCCC2CCN(S(=O)(=O)c3ccc(F)cc3)CC2)cc1,925
21,O=S(=O)(NCCc1ccsc1)c1cccnc1,686
22,C=CCNC(=O)c1cn(-c2cc(-c3nc(C(C)C)no3)ccn2)cn1,820

# Next, values leading:
row,RP-LC retention time [s],SMILES
1,984,CN(C)c1ccc(C(=O)N2CCCC2c2nc(-c3ccc(F)cc3F)no2)cc1 (configuration not stated)
2,1060,Cc1ccc(S(=O)(=O)N2CCCC(C(=O)Nc3cc(-c4nc(C)cs4)sc3C)C2)cc1 (configuration not stated)
3,1050,CCc1nc2c(c(=O)n1CC(=O)NCCCc1ccccc1)CN(Cc1ccccc1)CC2
4,741,Cc1ccccc1Cn1cc(-c2ccncc2)cc1C(=O)NCc1cccs1
5,707,Cc1cc(NC(=O)NCCn2nnc3cc(C(=O)N(C)C)ccc32)ccc1Br
6,1080,Cc1ccc(-c2noc(Cn3nc(-c4ccccc4)ccc3=O)n2)cc1
7,690,COc1ccc2cc(C(=O)N3CCC(CC(=O)NC4CC4)CC3)[nH]c2c1
8,1000,COC(=O)CC1=CC(SCC(=O)N2CCC(C)CC2)=Nc2ccccc2N1
9,644,CC1=C(C(=O)NCCCOC(C)C)C2(CCN(Cc3ccccc3)CC2)OC1=O
10,634,COc1ccc(-c2nc(C)cc(C)c2CNC(=O)c2ccc(Br)o2)cc1
11,818,CC(C)(NC(=O)c1ccoc1)c1nc2c(c(C(N)=O)n1)OCO2
12,652,CCOCCCNC(=O)N1CCC2(CC1)NC(=O)c1ccccc1O2
13,593,O=C(NCc1ccccn1)c1ccc(NC(=O)C2CC2)cc1N1CCCCCC1
14,690,COc1ccc(NC(=O)N2CCC(n3c(-c4ccco4)nc4cccnc43)C2)cc1F (configuration not stated)
15,836,COc1cccc(NC(=O)C2CCN(S(=O)(=O)c3ccc4c(c3)CCCN4C(C)=O)CC2)c1
16,761,COc1ccc2nc(NC(=O)Cn3nc(C(=O)N4CCOCC4)c4ccccc43)sc2c1
17,1110,Cc1ccc(NC(=O)N2CCCC2c2nc(-c3ccc(F)cc3F)no2)c(Cl)c1 (configuration not stated)
18,772,CCC(=O)Nc1ccc(-n2cnc(C(=O)N3CC(C)CC(C)C3)c2)nc1 (configuration not stated)
19,689,COc1ccc(-n2c(CN3CCN(C(=O)Nc4cc(F)ccc4F)CC3)nc3cccnc32)cc1
20,1090,Cc1ccc2oc(=O)n(Cc3noc(C(=O)NCCC4=CCCCC4)n3)c2c1
21,814,CCC1(C(=O)NCc2ccc(C(C)C)cc2)CCCCC(=O)N1 (configuration not stated)
22,973,CSc1cccc(NC(=O)C2CCCN(C(=O)c3ccc(Cl)cc3)C2)c1 (configuration not stated)
